Laboratory results published in patent US20040054009A1, “(BIS)sulfonamide derivatives” (priority 2002, published 2004).

Key:
human GluR4 = human GluR4 (Homo sapiens, UniProt P48058); experiment: whole cell voltage clamp electrophysiological characterization of AMPA receptor potentiators (response to 100 μM glutamate); assay type: cell-based; conditions: HEK293 cells stably expressing human GluR4, voltage-clamped at −60 mV, Hill equation fit
Excerpt: In another test, HEK293 cells stably expressing human GluR^4 (obtained as described in European Patent Application Publication No. EP-A1-0583917) were used in the electro-physiological characterization of AMPA receptor potentiators. The extracellular recording solution contained (in mM): 140 NaCl, 5 KCl, 10 HEPES, 1 MgCl2, 2 CaCl2, 10 glucose, pH=7.4 with NaOH, 295 mOsm kg^−1. The intracellular recording solution contained (in mM): 140 CsCl, 1 MgCl2, 10 HEPES, (N-[2-hydroxyethyl]piperazine-N^1-[2-ethanesulfonic acid]) 10 EGTA (ethylene-bis(oxyethylene-nitrilo)tetraacetic acid), pH=7.2 with CsOH, 295 mOsm kg^−1. […] Once stable baseline responses to this agonist challenge were obtained, the potentiator was introduced in the extracellular solution bathing the cells at the lowest concentration, and the response to 100 μM glutamate in the presence of this concentration of potentiator was determined.
The concentration of the potentiator, both in the bathing solution and co-applied with the agonist, was increased in half log units until the maximum potentiation was seen. […] Once the control responses to the agonist challenge were re-established, the potentiation of these responses by 100 μM cyclothiazide was determined by its inclusion in both the bathing solution and the agonist-containing solution. […]

human GluR4B receptor = target: T1, human GluR4B receptor (Homo sapiens, UniProt P48058); experiment: potentiation of agonist-induced excitability, HEK cells expressing human GluR4B (Fluo3-AM fluorescence, glutamate); assay type: cell-based; conditions: human GluR4B receptor expressed in HEK 293 cells
T1 construct: expressed in transfected cells
Protocol: 96 well plates containing confluent monolayers of HEK cells stably expressing human GluR^4B (obtained as described in European Patent Application Publication Number EP-A1-583917) were prepared. The tissue culture medium in the wells was then discarded, and the wells were each washed once with 200 μl of 5NaCa buffer (glucose, 10 mM, sodium chloride, 138 mM, magnesium chloride, 1 mM, potassium chloride, 5 mM, calcium chloride, 5 mM, N-[2-hydroxyethyl]-piperazine-N-[2-ethanesulfonic acid], 10 mM, to pH 7.1 to 7.3). The plates were then incubated for 60 minutes in the dark with 20 μM Fluo3-AM dye (obtained from Molecular Probes Inc, Eugene, Oreg.) in 5 NaCa buffer in each well. After the incubation, each well was washed once with 100 μl 5NaCa buffer, 200 μl of 5NaCa buffer was added and the plates were incubated for 30 minutes. […]
Each test was then performed as follows. […] A first reading was then taken using a FLUOROSKAN II fluorimeter (Obtained from Labsystems, Needham Heights, Mass., USA, a Division of Life Sciences International Plc). […] A second reading was then taken using the fluorimeter. The plate was then left in the fluorimeter for 5 minutes, and a third reading was taken. 15 μl of 400 μM glutamate solution was then added to each well (final glutamate concentration 100 μM), and a fourth reading was taken immediately. Approximately three minutes later, a fifth reading was taken. […]

T1 sequence (P48058 21-902): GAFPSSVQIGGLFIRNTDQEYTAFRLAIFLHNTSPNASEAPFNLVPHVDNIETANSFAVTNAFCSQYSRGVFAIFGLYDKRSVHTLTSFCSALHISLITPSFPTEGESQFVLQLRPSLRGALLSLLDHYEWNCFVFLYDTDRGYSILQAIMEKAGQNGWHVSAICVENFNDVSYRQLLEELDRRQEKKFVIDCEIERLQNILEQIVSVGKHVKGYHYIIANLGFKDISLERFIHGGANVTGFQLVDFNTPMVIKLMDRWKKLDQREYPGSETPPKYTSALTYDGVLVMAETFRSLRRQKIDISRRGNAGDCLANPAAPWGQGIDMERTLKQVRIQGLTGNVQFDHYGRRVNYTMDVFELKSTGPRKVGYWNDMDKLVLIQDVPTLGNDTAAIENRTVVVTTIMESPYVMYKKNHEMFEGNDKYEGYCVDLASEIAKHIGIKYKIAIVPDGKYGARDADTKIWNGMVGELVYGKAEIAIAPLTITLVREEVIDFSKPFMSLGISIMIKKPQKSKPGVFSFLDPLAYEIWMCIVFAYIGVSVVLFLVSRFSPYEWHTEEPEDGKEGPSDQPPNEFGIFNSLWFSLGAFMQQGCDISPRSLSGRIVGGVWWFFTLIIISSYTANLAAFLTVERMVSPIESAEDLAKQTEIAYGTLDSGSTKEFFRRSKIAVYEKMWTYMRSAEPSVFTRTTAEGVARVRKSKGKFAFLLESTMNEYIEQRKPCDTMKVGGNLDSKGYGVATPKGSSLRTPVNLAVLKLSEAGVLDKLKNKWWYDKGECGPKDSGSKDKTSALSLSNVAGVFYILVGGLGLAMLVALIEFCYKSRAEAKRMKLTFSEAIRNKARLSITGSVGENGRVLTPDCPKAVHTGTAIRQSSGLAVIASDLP
human GluR4, sequence (P48058 21-902): as above

melting point	SMILES	other results
–	CC(CNS(=O)(=O)C(C)C)c1ccc(-c2ccsc2)cc1 (stereo not shown) [Example 28]	EC50 (human GluR4): 230 ± 59 nM
82 to 84 °C	CC(C)(C)c1ccc(C2(CNS(=O)(=O)C(F)(F)F)CC2)cc1 [Example 24, N−1-(4-t-butylphenyl)cyclopropylmethyl Trifluoromethanesulfonamide]	–
87 to 89.5 °C	CC(C)S(=O)(=O)NCC1(c2ccc(C(C)(C)C)cc2)CC1 [Example 25, N-1-(4-t-butylphenyl)cyclopropylmethyl 2-propanesulfonamide]	–
–	NS(=O)(=O)c1cc2c(cc1Cl)NC(C1CC3C=CC1C3)NS2(=O)=O (stereo not shown) [cyclothiazide]	potentiation of agonist-induced excitability of human GluR4B receptor (human GluR4B receptor): potentiate agonist-induced excitability
